Data set [1] deals with HeLa cells. Put plainly: 24 hour cytotoxicity assay (Guava ViaCount). The following applies: for IC50: read-out: IC50 (viability). The class given is cell-based. Here is the method:
FIG. 11. 24 hour cytotoxicity assay using HeLa cells at increasing Magnevist and GO concentrations. […] The maximum GO dose required for cellular delivery enhancement is 20 μg/mL, or an order of magnitude below the highest test dose. The 150 nm GO was used for the study.
FIGS. 12A-B. Cytotoxicity of Magnevist. A) Viability of HeLa cells at increasing Magnevist concentration as measured by the Guava ViaCount Assay. Analysis includes floating cells at the end of the 24-hr incubation period. The fitted IC50 was 80 mM. […] Fitting was performed using GraphPad Prism software. All incubations were performed for 24 hours. Error bars show SD.
Cell counting was conducted using a Guava EasyCyte Mini Personal Cell Analyzer (EMD Millipore, Billerica, Mass.). After cell harvesting, an aliquot (50 μL) of the cell suspensions was mixed with Guava ViaCount reagent (150 μL) and allowed to stain at room temperature for at least 5 minutes. The dilution factor of 4 was determined based upon optimum machine performance (20-150 cells/μL). After vortexing for 10 sec, stained cells were counted using a Guava EasyCyte Mini Personal Cell Analyzer (PCA) using the ViaCount software module. For each sample, 1000 events were acquired. Gating of live/dead and cell/debris classifications were performed manually by the operator.

The subject of data set [2] is HeLa cells. Put plainly: Cell MR imaging of Magnevist-labeled cells in agarose phantoms (6-well labeling, Gd content by ICP-MS, 7 T). The class given is cell-based. The following applies: for Labeling achieved in the imaging study: after centrifugation; for Sensitivity for labeled cells on T1-weighted MRI: 7T. Here is the method:
HeLa cells were labeled by Magnevist with and without 150 nm GO co-incubation in 6-well plates. 2 plates seeded at 300,000 cells per well were needed to produce a sufficient number of cells for imaging. For the condition of GO co-incubation, 4500 μL of Magnevist-GO mixture was prepared at a concentration of 93.3 mM Magnevist and 27 μg/mL GO. The mixture was allowed to adsorb for at least 15 minutes. 375 μL of the Magnevist-GO mixture was added to 625 μL of media in each well to reach a final concentration of 35 mM Magnevist and 10 μg/mL GO. The cells were incubated with the mixture for […]. To harvest, cells were rinsed in-plate three times with 3000 μL PBS and trypsinized using 400 μL 0.25% TrypLE. After 5 minutes of incubation at 37° C., 600 μL of media was added to each well and mixed by a pipette to ensure that all cells were lifted into suspension. After combining all the wells into a 12 mL cell suspension, 3 aliquots of 25 μL each were obtained for cell counting by Guava. 175 μL of Guava ViaCount reagent was used for dilution. Additionally, 200 μL of the cell suspension was transferred to a 1.5-mL microcentrifuge tube, centrifuged at 1000 RPM for 5 min (Thermo Scientific, Model Legend Micro 21R), and re-suspended in 200 μL media to wash the cells. From the washed cell suspension, two aliquots of 25 μL each were used for cell counting by Guava and two aliquots of 25 μL each were used for Gd content analysis by ICP-MS. For the condition without GO co-incubation, the same procedures were followed except GO was replaced by Milli-Q water.
To create the cellular phantoms in agarose, a 1% media-agarose was prepared by mixing media and 2% low melting-point agarose (Life Technologies, Carlsbad, Calif.) in equal parts. At 7 T, the media-agrose has a T1 of 2952±152 ms and a T2 of 96±1 ms. In a 4 mL 15×45 mm glass vial, 2 mL of media-agarose was gelled at room temperature around a 5 mm OD NMR tube that was later removed to create a cylindrical bore. To fill the bore, the suspension of labeled cells was centrifuged at 1000 RPM for 5 minutes. After removing the supernatant, the cell pellet was re-suspended in media-agarose and further diluted to densities of 10,000, 5,000, 2,000, 500, and 100 cells/μL. 300 μL of each cell suspension was used to fill the bores in the 4 mL vials. After filling, the vials were cooled to 4° C. for 20 minutes to solidify the suspension. Approximately 3 mL of media was added on top of the media-agarose to completely fill the vial.
T1- and T2-weighted imaging were performed on a Bruker Pharmscan 7.05 T imaging spectrometer fitted with shielded gradient coils and a RF RES 300 1H 089/023 quadrature transceiver volume coil at 25° C. (Bruker BioSpin, Billerica, Mass.). Imaging was performed using a Rapid Acquisition with Refocused Echoes (RARE) pulse sequence. For T1-weighted imaging, the imaging parameters were TR=200 ms, TE=11.7 ms, NEX=1, FOV=21×21 mm^2, slice thickness=2 mm, and matrix size=256×256. For T2-weighted HDR, the imaging parameters were TR=5000 ms, TE=100 ms, NEX=1, FOV=15×15 mm^2, slice thickness=2 mm, and matrix size=256×256. The signal intensities of the acquired images were normalized such that the blank media-agarose has the same intensity across all images. Image processing was performed using ImageJ (NIH, Bethesda, Md.). T1 and T2-weighted images were processed separately.

The results in this text go back to patent US10994016B2, “Graphene oxide mediated cellular delivery of gadolinium-labeled molecules” (Northwestern University, priority 2015, dated 2021).

Where two headings read alike, the source gives them in different places.

For “Diethylenetriaminepentaacetic acid gadolinium(III) dihydrogen salt hydrate [Molecule 11]”, the 50% inhibitory concentration (IC50) in data set [1] (24 h, after in-plate washing by PBS, floating cells not included) stood at 99 mM; in data set [1] (24 h, analysis includes floating cells), 80 mM. Also, the Cytotoxicity result in data set [1] (24 h, up to 35 mM Magnevist and 250 μg/mL GO (150 nm GO)) is listed as “No significant cytotoxicity”; in data set [1] (Magnevist increased to 70 mM, with GO), “synergistic cytotoxicity”. The “Improvement of labeling with GO over Magnevist alone” value in data set [2] (35 mM Magnevist, 10 μg/mL GO) was found to be 57%. In data set [2] (GO co-incubation), the “Cellular Gd(III) payload relative to Gd(III)-DNA gold nanoparticles, Gd(III)-labeled polymer-liposomes, gadonanotubes and gadofullerenols” value was 30-50 fold. For the same substance, the “Increase of MR sensitivity for labeled cells compared to Magnevist alone” value in data set [2] (GO co-incubation) is around 10 fold. Further, the “Labeling achieved in the imaging study” value in data set [2] (Magnevist alone (35 mM), without GO) is on record as 30 fmol Gd/cell; in data set [2] (with GO co-incubation (10 μg/mL), 35 mM Magnevist), 47 fmol Gd/cell. The “Enhancement by GO” value in data set [2] (imaging study, before centrifugation) turned out to be 2.2 ×. The “Sensitivity for labeled cells on T1-weighted MRI” value in data set [2] (with GO co-incubation (150 nm GO)) was 500 cells/μL; in data set [2] (without GO), 5000 cells/μL. The “Loading in the imaging study” value is 153 fmol/cell in data set [2] (with GO, before centrifugation) and 69 fmol/cell in data set [2] (without GO, before centrifugation).
